From patent US20080260659A1, “Compositions” (GIVAUDAN SA, priority 2005, published 2008)

Tests used:
Type in all cases: cell-based
[1] = system: Aspergillus niger ATCC 16404 spores; assay: Sporicidal effect of test compounds in water; settings: 0.1% test compound, 7 days
Procedure: Aspergillus niger ATCC 16404 spores are added to water to obtain a density of 3×10^5 spores 1 ml. In order to prepare the spores, the test strain is grown for 5 days on potato dextrose agar at room temperature. The spores are harvested with a solution containing 0.1% Tween 80, peptone 0.1% and NaCl 0.85% and the spore concentration is adjusted to the density indicated above.
Test compounds are dissolved in dipropyleneglycol to a concentration of 20%.
These stock solutions are added to 10 ml aliquots of the spore suspension to obtain a final concentration of the test compounds of 0.1%. The sporicidal effect is shown by a reduction of spore counts after 7 days.
The reduction factor is determined as follows. Aliquots of the above prepared suspension of microorganisms (here: spore suspension prepared as described above) are plated on a suitable agar medium (see above) and the developing colonies are counted both for samples with test compound and for a negative probe (water). The count of the negative control is divided by the count of the test compound and thereby the reduction factor is determined. A negative control (water) accordingly has a reduction factor of 1 (no effect on the microorganism).

[2] = system: Staphylococcus aureus (DSMZ 799) and Pseudomonas aeruginosa (ATCC 15442); assay: Bactericidal effect in a cosmetic cream (mixed inoculum 1:1); settings: cosmetic cream pH 5,5; 0.1% 4-hydroxybenzaldehyde, no parabens
Procedure: (§1) A cosmetic cream (pH 5,5) for application to the human skin is formulated as follows (in % w/w): […]
(§2) Glyceryl-monostearate, Sweet almond oil, Cetyl-stearyl-alcohol and Glyceryl dilaurate are melted at 80° C. Xanthan gum is dispersed into glycerine. Arginine is dissolved in water and heated to 75° C. The Xanthan gum—glycerin suspension is added to the heated water phase, the heated oil phase is added and the suspension is stirred at 300 rpm for 10 min whilst being cooled down slowly. Finally, a homogeneous emulsion is made with a high speed homogenizer at 5000 rpm.
(§3) Test samples of cream contain different amounts of preservatives and/or preservative enhancer. The preservative and preservative enhancer is added to an aliquot of 10 g of the cream in 50 ml tubes in a concentration as shown in the table below. After addition of the preservative/preservative enhancer, the cream is thoroughly mixed to achieve a homogeneous distribution.
After 1-3 days of equilibration of the cream (storage at room temperature to achieve a homogenous partitioning of compounds between oil and water phase), […]
Aliquots of these suspended and diluted samples are plated on tryptic soy agar supplemented with 0.5% Tween 80 and then incubated for 24 h at 37° C. Surviving bacteria are counted.
(§4) The count of the negative control is divided by the count of the probe and thereby the reduction factor is determined. […]

[3] = system: Aspergillus niger ATCC 16404 spores; assay: Sporicidal effect in a cosmetic cream; settings: cosmetic cream pH 5,5; 0.1% 4-hydroxybenzaldehyde, no parabens
Procedure: as §1, §2
as §3, with “distribution. […]” for “distribution.”
After regular test intervals, samples of 1 g cream are removed and added to 20 ml of a neutralizer solution containing 0.2% lecithin, 2% Tween 80 and 0.5% NaCl. […] After 48 h to 72 h the number of surviving colony forming units (and therefore surviving spores) are counted.
as §4

Compound | Sporicidal effect / reduction of spore counts [1] | reduction factor 24 h bacteria [2] | reduction factor 7 d fungal spores [3]
O=Cc1ccc(O)cc1 [4-hydroxybenzaldehyde] | No significant reduction of spore counts | 1 | 1
COc1ccc(C=O)cc1 [4-methoxy-benzaldehyde] | No significant reduction of spore counts | – | –
C=CCCCCCCCCO [9-decenol, reference compound] | significant sporicidal effect | – | –
CC(CC=O)CCc1ccccc1 (stereo not drawn) [Mefranal, 3-methyl-5-phenylpentanal, reference compound] | significant sporicidal effect | – | –
